Results as given in US20240132498A1, “CRYSTALLINE FORMS OF 5-(3,4-DIFLUOROBENZYL)-8-((1R,4R)-4-METHYLCYCLOHEXYL)-6,9-DIOXO-2,5,8-TRIAZASPIRO[3.5]NONANE-2-CARBALDEHYDE” (Cytokinetics, Incorporated, priority 2022, published 2024).

Legend:
[1] = Rat single dose pharmacokinetics; type: in vivo; details: male, plasma, iv, Sprague Dawley rats; for Vd: read-out: Vss
Experimental: Male Sprague Dawley rats were obtained from Zhejiang Vital River Laboratory Animal Technology Co., Ltd. The animals in IV group had free access to water and food. The animals in PO group were fasted overnight before dosing and provided with food 2 hours post dosing. The IV dose solution was prepared in 10% DMA/50% PG/40% HPOCD solution (40% w/v aqueous HPOCD) at a concentration of 1 mg/mL. The oral dosing suspension was prepared by suspending Test Article in 0.5% HPMC/0.1% Tween 80 in water at a concentration 0.2 mg/mL. Concentrations of IV and PO doses were measured at the end of the study. Pharmacokinetic parameters were calculated using the nominal dose values if the measured values were within 20% of the nominal values. Three rats were dosed IV via a bolus injection via caudal vein. Three rats per dose group were dosed by oral gavage. Blood samples were collected from the jugular vein cannula at predose, 5 (IV only),15, 30 minutes, and 1, 2, 4, 6, and 24 hours post-dose. Blood volumes were replaced with an equal amount of sterile 0.9% saline. Blood samples were centrifuged and the collected plasma was stored at −80° C. for subsequent analysis. Plasma samples were analyzed for Test Article concentrations using a LC/MS/MS method. Briefly, a 50 μL aliquot of each plasma sample was mixed with 100 μL of acetonitrile that contained an internal standard. The mixture was vortexed and centrifuged. Ten (10) μL of the resulting solution was injected onto a reverse-phase C18 column and the resultant peaks detected on a LC/MS/MS equipped with a turbo ionspray ionization source. Sample concentrations below the limit of quantification (BLQ) were treated as zero for pharmacokinetic calculations. Pharmacokinetic parameters were estimated from individual animals using noncompartmental analysis of the concentration-time data (Phoenix WinNonLin software, version 64; Pharsight, Mountain View, CA). The elimination rate constant (k) was calculated as the absolute value of the slope of the linear regression of logarithm (log) of the concentration versus time for the last three data points of the concentration-time profiles. Apparent elimination half-life (t1/2) values were calculated as In(2)/k. Area under the concentration-time curve (AUC) values were estimated using linear trapezoidal method. AUC values were calculated from the dosing time to the last measurable concentration. AUC∞ values were calculated as the sum of the corresponding AUC and the ratio of the last detectable concentration divided by k (AUCt-∞). Plasma clearance (CL) was calculated from Dose/AUC∞. Mean resident time (MRT) was estimated by moment analysis. Volume of distribution at steady state (Vss) was calculated from MRT∞×CL. Maximum concentration (Cmax) and time to reach Cmax (tmax) were recorded as observed. Bioavailability was calculated from the ratio of dose normalized AUC∞,po of individual rats/mean dAUC∞,iv×100% where dAUC was the dose normalized AUC value. Compounds tested were prepared in accordance with the synthetic procedures described herein.

[2] = Projected single-dose CL and Vss values in humans (allometric scaling); details: human, allometric scaling of mouse, rat, dog, cynomolgus monkey IV PK
Experimental: Allometric scaling for the prediction of human Clearance and Volume of Distribution was based on interspecies simple allometric scaling of mouse, rat, dog, and cynomolgus monkey intravenous pharmacokinetic parameters (Boxenbaum, J Pharmacokinet Biopharm 10:201-27, 1982). Prediction of human CL was performed by extrapolating pre-clinical species' plasma intravenous clearance. The ‘rule of exponents’ (Mahmood & Balian, Life Sci. 59:579-85, 1996) was examined in this prediction, where it has been proposed that, when the exponent of simple allometry lies between 0.71 and 0.99, a correction factor based on Maximum Life Span (MLP) of this species can be applied and, when the exponent of simple allometry is greater than 1.0, a correction factor based on Brain Weight (BrW) can be applied, or a protein binding correction can be applied when available. In a similar manner, simple allometric scaling was employed to predict human Volume of Distribution. This method has been used successfully for varied drugs (Ward & Smith, Drug Metab Dispos 32:612-19, 2004; McGinnity et al., Curr Drug Metab 8:463-79, 2007).

[3] = Dog single dose pharmacokinetics; type: in vivo; details: male, plasma, intravenous, beagle dogs; for Vd: read-out: Vss
Experimental: Non-naïve male beagle dogs (8 months −3 years of age, body weight 8-13 kg) were used in this study. All animals for IV administration had free access to food and water; all animals for PO were fasted overnight prior to dosing and were fed approximately 6 hours after dosing. For the animals in PO group, pentagastrin (6.0 μg/kg, i.m.) was administrated 20 minutes before dosing PO formulation and 1.5 hours after the second pentagastrin dosing. The dosing volume was 0.024 mL/kg, the concentration was 250 μg/mL in DMSO/1 N NaOH/PBS. 10 mL of 0.001 N HCl was used to wash the gavage catheter for each animal. The IV dose solution was prepared in 10% DMA/50% PG/40% HPOCD solution (40% w/v aqueous HPOCD) at a concentration of 1.0 mg/mL. The oral dose suspension was prepared by suspending the compound in 0.5% HPMC/0.1% Tween 80 in distilled water at a concentration of 0.2 mg/mL. Concentrations of IV and PO doses were measured at the end of the study. PK parameters were calculated using the nominal dose values if the measured values were within 20% of the nominal values. Blood samples were collected by venipuncture of peripheral veins except the dosing vein at pre-dose, 5 15, 30 min, 1, 2, 4, 6, 8, 24 and 48 h post-dose. Blood samples were centrifuged and resultant plasma was frozen for bioanalysis. Plasma samples were stored at −80° C. before analysis. Plasma samples were analyzed for compound concentrations using the LC/MS/MS method. Briefly, a 50 μL aliquot of each plasma sample was mixed with 100 μL of acetonitrile that contained an internal standard. The mixture was vortexed and centrifuged. Ten (10) μL of the resulting solution was injected onto a reverse-phase C18 column and the resultant peaks detected on a LC/MS/MS equipped with a turbo ionspray ionization source. Sample concentrations below the limit of quantification (BLQ) were treated as zero for PK calculations. PK parameters were estimated from individual animals using noncompartmental analysis of the concentration-time data (Phoenix WinNonLin software, version 64; Pharsight, Mountain View, CA). The elimination rate constant (k) was calculated as the absolute value of the slope of the linear regression of logarithm (log) of the concentration versus time for the last three data points of the concentration-time profiles. Apparent elimination half-life (t1/2) values were calculated as 1n(2)/k. Area under the concentration-time curve (AUC) values were estimated using linear trapezoidal method. AUCt values were calculated from the dosing time to the last measurable concentration. AUC∞ values were calculated as the sum of the corresponding AUC and the ratio of the last detectable concentration divided by k. Plasma clearance (CL) was calculated from Dose/AUC∞. Mean resident time extrapolated to infinity (MRT∞) was estimated by moment analysis. VSS, was calculated from MRT∞×CL. Maximum concentration (Cmax) and time to reach Cmax (tmax) were recorded as observed. As this was a cross-over study, bioavailability was calculated dAUC∞,po/dAUC∞,iv×100% where dAUC was the dose normalized AUC value from the same animal given IV and PO dose. Compounds tested were prepared in accordance with the synthetic procedures described herein.

clearance [1] [mL/min/kg] | half-life [1] [h] | Vd [1] [L/kg] | Projected t1/2 [2] [h] | clearance [3] [mL/min/kg] | Vd [3] [L/kg] | Structure (SMILES)
29.6 | 6.48 | 15.1 | 38.7 | 1.59 | 5.2 | O=CN1CC2(C1)C(=O)N(c1ccc(F)cc1F)CC(=O)N2Cc1ccc(Cl)cc1 [Comparator A, 5-(4-chlorobenzyl)-8-(2,4-difluorophenyl)-6,9-dioxo-2,5,8-triazaspiro[3.5]nonane-2-carbaldehyde]
20.2 | 3.3 | 5.2 | 41 | 4.92 | 5.91 | O=C1[C@H](C2COC2)N(Cc2ccc(C(F)(F)F)cc2)C(=O)CN1c1ncc(Cl)cc1F [Comparator C, (S)-1-(5-chloro-3-fluoropyridin-2-yl)-3-(oxetan-3-yl)-4-(4-(trifluoromethyl)benzyl)piperazine-2,5-dione, reference compound]
8.23 | 4.84 | 2.98 | 62 | 3.55 | 6.7 | CC(=O)N1CC2(C1)C(=O)N(c1ccc(C#N)cc1F)CC(=O)N2Cc1ccc(C(F)(F)F)cc1 [Comparator D, 4-(2-acetyl-6,9-dioxo-5-(4-(trifluoromethyl)benzyl)-2,5,8-triazaspiro[3.5]nonan-8-yl)-3-fluorobenzonitrile]
18.8 | 5.4 | 8.23 | 51.7 | 1.49 | 4.1 | O=CN1CC2(C1)C(=O)N([C@H]1CC[C@H](C(F)F)CC1)CC(=O)N2Cc1ccc(C(F)(F)F)cc1 [Comparator E, 8-((1r,4r)-4-(difluoromethyl)cyclohexyl)-6,9-dioxo-5-(4-(trifluoromethyl)benzyl)-2,5,8-triazaspiro[3.5]nonane-2-carbaldehyde]
52.6 | 3.34 | 13 | 28.3 | 7.57 | 4.23 | C[C@H]1CC[C@H](N2CC(=O)N(Cc3ccc(F)c(F)c3)C3(CN(C=O)C3)C2=O)CC1 [Compound 1, 5-(3,4-difluorobenzyl)-8-((1r,4r)-4-methylcyclohexyl)-6,9-dioxo-2,5,8-triazaspiro[3.5]nonane-2-carbaldehyde]
